From publication PMC6138237, “Machine intelligence decrypts β-lapachone as an allosteric 5-lipoxygenase inhibitor” (Chemical Science, 2018) come the findings set out here.

Each structure is given as a SMILES string. pIC50: −log10 of the molar value. Read-outs that look alike come from different tables or passages of the source.

One may read the inhibition as the percentage by which the read-out fell short of the control. For orientation: pIC50 means −log10 of the IC50, conventionally taken in molar units. Read a high pIC50 as a low IC50.

The target in one data set is T1, 5-LO (Homo sapiens, UniProt P09917).
T1 sequence (P09917 1-674): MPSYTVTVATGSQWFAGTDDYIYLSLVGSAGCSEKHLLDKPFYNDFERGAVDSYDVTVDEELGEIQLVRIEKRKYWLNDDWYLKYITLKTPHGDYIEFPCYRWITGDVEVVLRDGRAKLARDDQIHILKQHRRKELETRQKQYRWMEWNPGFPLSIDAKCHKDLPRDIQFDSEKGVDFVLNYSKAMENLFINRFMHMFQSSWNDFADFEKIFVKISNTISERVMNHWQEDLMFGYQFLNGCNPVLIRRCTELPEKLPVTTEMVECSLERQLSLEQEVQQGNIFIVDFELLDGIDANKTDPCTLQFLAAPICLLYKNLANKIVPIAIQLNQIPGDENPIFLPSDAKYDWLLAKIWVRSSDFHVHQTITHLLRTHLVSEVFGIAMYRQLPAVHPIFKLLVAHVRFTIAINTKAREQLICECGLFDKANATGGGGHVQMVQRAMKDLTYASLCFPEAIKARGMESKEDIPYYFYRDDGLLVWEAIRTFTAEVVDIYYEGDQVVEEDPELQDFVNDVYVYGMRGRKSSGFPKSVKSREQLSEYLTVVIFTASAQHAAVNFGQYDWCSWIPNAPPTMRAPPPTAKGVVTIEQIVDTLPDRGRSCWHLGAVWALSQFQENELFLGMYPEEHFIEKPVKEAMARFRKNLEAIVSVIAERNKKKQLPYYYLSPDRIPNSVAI
Briefly: 5-LO inhibition assay, Cerep (Method A, indirect fluorogenic readout, Rhodamine 123). The note with it: 5-LO. In kind it is biochemical.

For a further data set, the target named is T2, 15-LO-2 (Homo sapiens, UniProt O15296).
T2 sequence (O15296 1-676): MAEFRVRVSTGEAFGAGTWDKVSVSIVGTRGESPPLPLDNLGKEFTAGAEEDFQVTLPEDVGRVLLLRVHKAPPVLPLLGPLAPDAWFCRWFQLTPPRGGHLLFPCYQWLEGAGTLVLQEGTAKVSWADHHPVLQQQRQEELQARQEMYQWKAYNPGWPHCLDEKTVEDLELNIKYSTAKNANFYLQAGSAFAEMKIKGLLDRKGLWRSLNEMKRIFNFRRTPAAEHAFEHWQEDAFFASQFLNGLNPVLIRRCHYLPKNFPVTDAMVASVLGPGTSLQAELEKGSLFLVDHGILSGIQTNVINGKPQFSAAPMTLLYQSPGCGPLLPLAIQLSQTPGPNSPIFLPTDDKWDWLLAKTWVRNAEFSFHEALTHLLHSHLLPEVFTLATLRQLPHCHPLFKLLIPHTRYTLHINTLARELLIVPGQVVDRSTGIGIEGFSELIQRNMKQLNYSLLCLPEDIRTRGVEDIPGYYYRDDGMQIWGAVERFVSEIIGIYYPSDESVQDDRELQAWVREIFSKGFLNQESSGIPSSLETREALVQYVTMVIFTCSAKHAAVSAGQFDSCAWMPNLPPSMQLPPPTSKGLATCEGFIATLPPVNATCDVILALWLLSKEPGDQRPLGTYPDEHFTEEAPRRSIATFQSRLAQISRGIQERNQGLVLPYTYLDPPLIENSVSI
Briefly: 15-LO-2 inhibition assay, Cerep (Method A, fluorometry). In kind it is biochemical. As to conditions: control.

The target of a further data set is p38α (Homo sapiens, UniProt Q16539). Briefly: ExpresS Diversity Kinase Profile, Cerep (LANCE): p38α. In kind it is biochemical. As to conditions: control. In general terms: Time-resolved FRET reads energy transfer from a long-lived donor to a nearby acceptor.
Another data set has as its target TRPV1 (Homo sapiens, UniProt Q8NER1). Briefly: TRPV1 functional agonist assay, Cerep (intracellular Ca2+). In kind it is cell-based.
A further data set addresses T3, TRPM8 (Homo sapiens, UniProt Q7Z2W7).
T3 construct: Cerep, SA (fee-for-service assay) printed G018533 (citation number 33 glued on)
Briefly: TRPM8 functional agonist assay, Cerep (intracellular Ca2+). In kind it is cell-based.

A short description of data set [1]: Dynamic light scattering (colloidal aggregation). In kind it is physicochemical. As to conditions: 25 °C.
The target of data set [2] is T4, EP3 (Homo sapiens, UniProt P43115).
T4 sequence (P43115 1-390): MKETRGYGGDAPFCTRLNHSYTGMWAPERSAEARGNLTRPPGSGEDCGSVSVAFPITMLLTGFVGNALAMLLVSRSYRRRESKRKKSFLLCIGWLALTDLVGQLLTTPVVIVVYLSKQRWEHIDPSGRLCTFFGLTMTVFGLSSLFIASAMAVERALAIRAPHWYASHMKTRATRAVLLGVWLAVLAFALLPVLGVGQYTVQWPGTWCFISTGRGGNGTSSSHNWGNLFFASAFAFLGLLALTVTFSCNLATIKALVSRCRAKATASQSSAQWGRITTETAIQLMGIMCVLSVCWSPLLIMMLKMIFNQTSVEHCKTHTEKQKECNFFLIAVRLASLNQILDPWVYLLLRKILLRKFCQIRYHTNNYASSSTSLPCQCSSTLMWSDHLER
The data set can be described thus: EP3 functional agonist assay, Cerep (impedance).

For a further data set, the target named is EP2 (Homo sapiens, UniProt P43116). Briefly: EP2 functional agonist assay, Cerep (cAMP, HTRF).
The target of another data set is EP4 (Homo sapiens, UniProt P35408). Briefly: EP4 functional agonist assay, Cerep (cAMP, HTRF).
Another data set deals with T5, EP1 (Homo sapiens, UniProt P34995).
T5 sequence (P34995 1-402): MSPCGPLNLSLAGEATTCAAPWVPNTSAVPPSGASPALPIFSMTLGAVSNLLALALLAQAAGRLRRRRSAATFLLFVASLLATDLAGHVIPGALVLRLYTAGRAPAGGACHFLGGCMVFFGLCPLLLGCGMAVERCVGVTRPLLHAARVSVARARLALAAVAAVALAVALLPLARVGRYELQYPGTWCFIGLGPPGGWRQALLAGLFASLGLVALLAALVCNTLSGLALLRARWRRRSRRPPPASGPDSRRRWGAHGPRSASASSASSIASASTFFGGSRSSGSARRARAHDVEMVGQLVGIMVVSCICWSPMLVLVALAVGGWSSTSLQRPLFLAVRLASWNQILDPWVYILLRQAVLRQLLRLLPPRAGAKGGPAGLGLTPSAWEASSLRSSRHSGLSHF
Briefly: EP1 functional agonist assay, Cerep (intracellular Ca2+).

A further data set addresses PDE5 (Homo sapiens, UniProt O76074). The data set can be described thus: Phosphodiesterase 5 inhibition assay, Cerep (scintillation counting). In kind it is biochemical. As to conditions: PDE5; control.
A further data set deals with SIK (Homo sapiens, UniProt P57059). Briefly: ExpresS Diversity Kinase Profile, Cerep (LANCE): SIK. In kind it is biochemical. As to conditions: control.
In data set [3] the target is T4, EP3. Briefly: EP3 functional antagonist assay, Cerep (sulprostone 0.1 nM, impedance). The note with it: EP3 concentration–inhibition curve; n = 2.
[4] abbreviates: n = 2, read-out: % inhibition of control values, Mean.
Setting [5] is: read-out: % inhibition of control values, 1st measure.
The mark [6] stands for this setting: read-out: % inhibition of control values, 2nd measure.
The mark [7] stands for this setting: read-out: % of control values, 1st measurement.
Where [8] appears, read: read-out: % of control values, 2nd measurement.
Setting [9] is: read-out: % of control values, Mean.

T3 sequence (Q7Z2W7 whole entry): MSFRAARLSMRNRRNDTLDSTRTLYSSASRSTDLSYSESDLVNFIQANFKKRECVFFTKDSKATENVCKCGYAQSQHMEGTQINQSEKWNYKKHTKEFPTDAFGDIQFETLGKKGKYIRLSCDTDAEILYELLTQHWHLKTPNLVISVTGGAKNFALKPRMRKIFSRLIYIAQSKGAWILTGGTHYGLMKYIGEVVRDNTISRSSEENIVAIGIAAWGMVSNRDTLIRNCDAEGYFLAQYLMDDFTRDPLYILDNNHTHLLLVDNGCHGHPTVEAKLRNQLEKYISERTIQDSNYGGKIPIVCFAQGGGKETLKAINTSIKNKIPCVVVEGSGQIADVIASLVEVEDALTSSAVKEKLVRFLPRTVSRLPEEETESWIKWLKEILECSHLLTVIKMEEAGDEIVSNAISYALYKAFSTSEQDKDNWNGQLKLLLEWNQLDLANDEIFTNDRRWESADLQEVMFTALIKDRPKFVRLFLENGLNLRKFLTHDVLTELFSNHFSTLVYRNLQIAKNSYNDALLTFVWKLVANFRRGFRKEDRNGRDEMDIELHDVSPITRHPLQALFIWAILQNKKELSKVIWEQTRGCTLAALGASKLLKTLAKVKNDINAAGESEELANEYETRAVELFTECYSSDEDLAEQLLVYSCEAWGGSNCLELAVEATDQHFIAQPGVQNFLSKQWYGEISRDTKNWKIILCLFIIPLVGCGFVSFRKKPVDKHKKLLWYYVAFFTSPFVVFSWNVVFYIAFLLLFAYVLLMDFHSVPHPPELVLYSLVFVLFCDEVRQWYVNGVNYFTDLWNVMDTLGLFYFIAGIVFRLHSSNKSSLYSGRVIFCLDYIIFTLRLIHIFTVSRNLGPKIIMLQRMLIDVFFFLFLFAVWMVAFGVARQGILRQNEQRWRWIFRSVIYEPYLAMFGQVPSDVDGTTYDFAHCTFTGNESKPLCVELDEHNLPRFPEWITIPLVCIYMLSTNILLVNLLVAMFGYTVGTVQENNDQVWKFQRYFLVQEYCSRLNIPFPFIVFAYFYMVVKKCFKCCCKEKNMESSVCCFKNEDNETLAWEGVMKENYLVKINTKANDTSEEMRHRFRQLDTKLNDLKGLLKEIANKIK
Chain of EP4 (P35408 whole entry): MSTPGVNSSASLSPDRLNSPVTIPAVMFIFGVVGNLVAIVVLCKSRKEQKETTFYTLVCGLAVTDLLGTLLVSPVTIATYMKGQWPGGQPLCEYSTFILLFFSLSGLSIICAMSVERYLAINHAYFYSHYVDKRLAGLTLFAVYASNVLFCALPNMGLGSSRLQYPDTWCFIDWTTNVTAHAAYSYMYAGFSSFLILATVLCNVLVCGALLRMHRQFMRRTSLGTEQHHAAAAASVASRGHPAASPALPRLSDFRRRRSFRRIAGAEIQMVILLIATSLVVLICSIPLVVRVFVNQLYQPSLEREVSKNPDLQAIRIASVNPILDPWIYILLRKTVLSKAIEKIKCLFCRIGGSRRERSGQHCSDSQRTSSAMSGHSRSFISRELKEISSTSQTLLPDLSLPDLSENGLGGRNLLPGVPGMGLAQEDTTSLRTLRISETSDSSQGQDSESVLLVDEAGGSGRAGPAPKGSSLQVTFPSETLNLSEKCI
Chain of TRPV1 (Q8NER1 whole entry): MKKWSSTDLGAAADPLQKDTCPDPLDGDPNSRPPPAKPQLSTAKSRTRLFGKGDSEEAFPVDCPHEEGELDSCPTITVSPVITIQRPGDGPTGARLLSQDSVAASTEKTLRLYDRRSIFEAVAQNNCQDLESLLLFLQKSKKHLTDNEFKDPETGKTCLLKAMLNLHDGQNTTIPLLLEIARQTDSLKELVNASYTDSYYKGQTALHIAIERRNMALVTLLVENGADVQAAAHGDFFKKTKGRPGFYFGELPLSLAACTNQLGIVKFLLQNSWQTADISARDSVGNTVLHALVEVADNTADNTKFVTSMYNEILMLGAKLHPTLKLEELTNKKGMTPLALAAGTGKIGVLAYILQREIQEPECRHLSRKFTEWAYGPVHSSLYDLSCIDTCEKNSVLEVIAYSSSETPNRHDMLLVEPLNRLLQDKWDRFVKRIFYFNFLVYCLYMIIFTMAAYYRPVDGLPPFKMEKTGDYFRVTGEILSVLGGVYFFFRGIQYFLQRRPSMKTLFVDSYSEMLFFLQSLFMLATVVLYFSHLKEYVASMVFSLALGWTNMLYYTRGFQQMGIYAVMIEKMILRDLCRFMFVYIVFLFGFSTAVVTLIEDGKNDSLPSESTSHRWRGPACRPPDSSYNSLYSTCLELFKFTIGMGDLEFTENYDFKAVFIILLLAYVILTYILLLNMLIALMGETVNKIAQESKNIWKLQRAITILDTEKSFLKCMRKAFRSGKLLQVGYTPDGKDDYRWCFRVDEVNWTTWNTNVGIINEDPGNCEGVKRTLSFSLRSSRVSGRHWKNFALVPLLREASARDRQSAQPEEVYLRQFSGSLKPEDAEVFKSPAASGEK
Chain of EP2 (P43116 whole entry): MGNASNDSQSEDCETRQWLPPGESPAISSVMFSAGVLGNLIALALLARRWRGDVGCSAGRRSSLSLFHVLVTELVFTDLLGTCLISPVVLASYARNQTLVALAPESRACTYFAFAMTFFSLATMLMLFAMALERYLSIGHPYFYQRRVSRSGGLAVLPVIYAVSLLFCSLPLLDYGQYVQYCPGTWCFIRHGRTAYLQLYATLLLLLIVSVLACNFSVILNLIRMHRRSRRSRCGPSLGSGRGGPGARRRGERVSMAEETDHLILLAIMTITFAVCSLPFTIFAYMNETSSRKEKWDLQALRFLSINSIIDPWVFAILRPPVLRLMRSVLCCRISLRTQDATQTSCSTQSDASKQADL
Chain of SIK (P57059 whole entry): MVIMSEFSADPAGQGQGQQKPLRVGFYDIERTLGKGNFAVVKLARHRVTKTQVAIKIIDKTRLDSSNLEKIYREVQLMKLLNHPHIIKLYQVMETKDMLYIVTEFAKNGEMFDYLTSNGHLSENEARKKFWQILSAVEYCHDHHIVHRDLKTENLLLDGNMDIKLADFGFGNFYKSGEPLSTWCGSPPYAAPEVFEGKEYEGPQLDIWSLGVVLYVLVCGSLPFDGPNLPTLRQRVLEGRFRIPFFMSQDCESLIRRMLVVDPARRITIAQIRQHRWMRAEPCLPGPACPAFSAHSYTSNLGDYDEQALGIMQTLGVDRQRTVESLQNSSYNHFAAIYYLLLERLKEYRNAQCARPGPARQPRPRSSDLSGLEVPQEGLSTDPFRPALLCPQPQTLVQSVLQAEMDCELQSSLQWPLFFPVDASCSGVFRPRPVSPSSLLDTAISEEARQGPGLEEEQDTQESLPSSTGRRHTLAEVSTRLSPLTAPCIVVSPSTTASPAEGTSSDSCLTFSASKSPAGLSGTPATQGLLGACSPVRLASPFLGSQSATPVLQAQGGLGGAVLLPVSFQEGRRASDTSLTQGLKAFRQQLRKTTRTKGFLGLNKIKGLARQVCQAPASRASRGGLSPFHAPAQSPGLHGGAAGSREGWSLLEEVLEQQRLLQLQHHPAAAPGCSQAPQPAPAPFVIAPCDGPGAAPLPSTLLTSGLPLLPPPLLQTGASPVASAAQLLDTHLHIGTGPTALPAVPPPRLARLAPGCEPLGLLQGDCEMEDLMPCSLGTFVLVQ
Chain of p38α (Q16539 whole entry): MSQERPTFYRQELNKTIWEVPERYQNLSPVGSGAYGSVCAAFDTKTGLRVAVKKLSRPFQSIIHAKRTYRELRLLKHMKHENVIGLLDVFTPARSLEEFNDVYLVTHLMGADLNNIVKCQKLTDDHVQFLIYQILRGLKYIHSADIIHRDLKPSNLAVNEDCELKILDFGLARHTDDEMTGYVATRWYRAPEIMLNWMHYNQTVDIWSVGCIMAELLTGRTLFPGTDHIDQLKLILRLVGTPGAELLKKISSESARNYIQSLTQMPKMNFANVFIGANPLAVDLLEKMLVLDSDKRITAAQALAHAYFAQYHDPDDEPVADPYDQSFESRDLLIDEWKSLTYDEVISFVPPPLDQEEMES

In the case of `CC1(C)OC2=C(C(=O)C(=O)c3ccccc32)C1Nc1ccccc1` (stereo not drawn) [Compound 2], the values for the inhibition at 5 µM on 5-LO (setting [4]), at 5-LO (setting [5]) and at 5-LO (setting [6]) were 32.2%, 42.2% and 22.2%, respectively.

On to `N#C/C(=C\c1ccc(O)c(O)c1)C(=O)OCCc1cccs1` [Compound 2-TEDC, reference compound], for which the nHill on 15-LO-2 came out at 0.7.

Regarding `Oc1ccc(-c2nc(-c3ccncc3)c(-c3ccc(F)cc3)[nH]2)cc1` [SB202190, reference compound], the nHill at p38α came out at 1.3.

On to `CC(=O)OCC1OC(OCc2cn(C3C4=C(OC3(C)C)c3ccccc3C(=O)C4=O)nn2)C(OC(C)=O)C(OC(C)=O)C1OC(C)=O` (stereo not drawn) [Compound 8], for which the inhibition at 5 µM on 5-LO (setting [4]) is 66.6%; at 5-LO (setting [5]), 68.4%; on 5-LO (setting [6]), 64.8%.

For the compound `CC1(C)OC2=C(CC1O)C(=O)C(=O)c1ccccc12` (stereo not drawn) [Compound 5], the inhibition at 5 µM on 5-LO (setting [4]) was 41.1%; at 5-LO (setting [5]), 47.2%; at 5-LO (setting [6]), 35.5%.

On to `CC(C)=CCC1=C(O)C(=O)c2ccccc2C1=O` [Lapachol, lapachol, reference compound], for which the figures for the inhibition at 150 µM at 5-LO (setting [4]), on 5-LO (setting [5]) and at 5-LO (setting [6]) were 87.1%, 84.9% and 89.3%, respectively. The remaining activity at 150 µM at TRPV1 (setting [7]) is -13.1%; on TRPV1 (setting [8]), -13.1%; on TRPV1 (setting [9]), -13.1%; at EP3 [2] (setting [7]) it was 22.7%; at EP3 [2] (setting [8]), 21.7%; at EP3 [2] (setting [9]), 22.2%. In addition, the remaining activity at 150 µM was -1.2% at EP2 (setting [7]); -2.4% at EP2 (setting [8]); -1.8% at EP2 (setting [9]); 8% at EP4 (setting [7]); 5.8% on EP4 (setting [8]); 6.9% at EP4 (setting [9]). The remaining activity at 150 µM at EP1 (setting [7]), on EP1 (setting [8]) and at EP1 (setting [9]) was -11.3% throughout. Further, the agonist response (% of control) at 150 µM on TRPM8 (setting [7]), at TRPM8 (setting [8]) and on TRPM8 (setting [9]) was -20.4% each time. Besides, the entries for the “Count rate (kcps)” value in data set [1] (25 µM in H2O + 0.1% DMSO), in data set [1] (50 µM in H2O + 0.1% DMSO) and in data set [1] (100 µM in H2O + 0.1% DMSO) were 250.6 kcps, 198.4 kcps and 882.6 kcps, respectively.

For `OCCN(CCO)c1nc(N2CCCCC2)c2nc(N(CCO)CCO)nc(N3CCCCC3)c2n1` [Dipyridamole, reference compound], the nHill on PDE5 amounted to 1.3.

Turning to `CC1(C)OC2=C(C(=O)C(=O)c3ccccc32)C1Nc1ccc(Cl)cc1` (stereo not drawn) [Compound 3], the inhibition at 5 µM is 31.1% at 5-LO (setting [4]), 33.1% on 5-LO (setting [5]) and 29% at 5-LO (setting [6]).

As to `Cn1cc(C2=C(c3cn(CCCSC(=N)N)c4ccccc34)C(=O)NC2=O)c2ccccc21` [Ro-318220, reference compound], at SIK, the nHill was 0.7.

Regarding `CC(=O)OCC1OC(OCc2cn(CC3C4=C(OC3(C)C)c3ccccc3C(=O)C4=O)nn2)C(OC(C)=O)C(OC(C)=O)C1OC(C)=O` (stereo not drawn) [Compound 7], the inhibition at 5 µM on 5-LO (setting [4]) stood at 75.4%; on 5-LO (setting [5]), 73.8%; on 5-LO (setting [6]), 76.9%.

As to `COc1ccc(Br)cc1S(=O)(=O)NC(=O)/C=C/c1ccccc1Cc1ccc2ccccc2c1` [Compound L798106, reference compound], at EP3 [3], the negative logarithm of the IC50 (pIC50) is 6.43.

For the compound `CC1(C)OC2=C(C(=O)C(=O)c3ccccc32)C1O` (stereo not drawn) [Compound 4], the inhibition at 5 µM on 5-LO (setting [4]) turned out to be 72.8%; at 5-LO (setting [5]) it was 77.4%; at 5-LO (setting [6]), 68.2%.

Consider `CC(Cc1ccc(O)c(O)c1)C(C)Cc1ccc(O)c(O)c1` (stereo not drawn) [NDGA, reference compound], for which, on 5-LO (control), the nHill was 1.5.

For `CC1(C)OC2=C(C(=O)C(=O)c3ccccc32)C1Nc1ccc(C(=O)/C=C/c2ccccc2)cc1` (stereo not drawn) [Compound 6], the values for the inhibition at 5 µM at 5-LO (setting [4]), on 5-LO (setting [5]) and on 5-LO (setting [6]) were 54.8%, 51.5% and 58.1%, respectively.
